Data reported in patent US8257755B2, “Metabolic syndrome-improving agent and medicine, supplement, functional food and food additive containing the same” (ARKRAY, Inc., priority 2005, dated 2012).

Legend:
PPARα = target: T1, PPARα (Homo sapiens, UniProt Q07869); experiment: PPARα ligand activity, GAL4-hPPARα luciferase reporter assay in CV-1 cells; type: cell-based; settings: relative to non-treatment control (DMSO) = 100, average ± standard error
T1 construct: expressed in transfected cells; host or cells: CV-1 cells (African green monkey kidney)
T1 sequence (Q07869 1-468): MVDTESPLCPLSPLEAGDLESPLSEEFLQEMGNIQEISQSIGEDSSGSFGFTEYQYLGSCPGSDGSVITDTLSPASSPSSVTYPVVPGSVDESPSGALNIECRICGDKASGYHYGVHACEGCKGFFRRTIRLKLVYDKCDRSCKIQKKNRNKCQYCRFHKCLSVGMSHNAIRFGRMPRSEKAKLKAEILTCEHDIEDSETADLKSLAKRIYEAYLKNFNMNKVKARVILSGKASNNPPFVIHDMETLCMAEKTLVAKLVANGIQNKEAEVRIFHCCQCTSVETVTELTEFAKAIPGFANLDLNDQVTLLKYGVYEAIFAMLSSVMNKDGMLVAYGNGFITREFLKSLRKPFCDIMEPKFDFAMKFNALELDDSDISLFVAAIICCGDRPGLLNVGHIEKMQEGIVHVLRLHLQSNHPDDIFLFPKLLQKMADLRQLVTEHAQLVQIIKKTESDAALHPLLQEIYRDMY
Experimental: (§1) CV-1 cells (cultured cells derived from kidneys of male African green monkeys) were implanted on 24-well culture plates so as to be […]/well and cultured at 37° C. in 5% CO2 for 24 hours. As a medium, DMEM (Dulbecco's Modified Eagle Medium; manufactured by GIBCO) containing 10% FBS (fetal bovine serum) and a 10 mg/mL penicillin streptomycin solution was used. Using the Lipofectamine system (trade name; manufactured by Invitrogen Corporation), pM-hPPARγ and p4×UASg-tk-luc were transfected. The above-noted pM-hPPARγ was a chimeric protein-expression plasmid binding GAL4 gene (amino acid sequence 1-147) and human PPARγ ligand-binding site gene (amino acid sequence 204-505), whereas the above-noted p4×UASg-tk-luc was a reporter plasmid containing four copies of a responsive element (UAS) of GAL 4 upstream of a luciferase gene. About 24 hours after the transfection, samples of bergamottin at respective concentrations (0.1, 1.0, 10, 50 and 100 μM) were added to the above-described media, followed by 24 hour incubation. The above-noted samples were prepared by dissolving bergamottin in dimethyl sulfoxide (DMSO). Instead of the above-noted sample, DMSO was used for non-treated control media. After the incubation, measurement was made using a Dual-Luciferase Reporter Gene Assay system (trade name; manufactured by Promega Corporation).
(§2) Similarly to the measurement group, as a control group, pM (a plasmid from which PPARγ ligand-binding site gene was removed) was used for measurement instead of pM-hPPARγ. For each sample, the ratio between average luminescence intensities of the measurement group and the control group (n=4) (measurement group/control group) was calculated, and an activity relative to the non-treatment control was determined as the PPARγ ligand activity of the sample.
The PPARα ligand activity of bergamottin was measured similarly to Example 1 except that pM-hPPARα was used instead of pM-hPPARγ and the bergamottin concentrations were set to 0.1, 1.0, 5.0, 10, 20, 50 and 80 μM.

[1] = target: T2, human PPARγ ligand-binding site (Homo sapiens, UniProt P37231); experiment: PPARγ ligand activity, GAL4-hPPARγ luciferase reporter assay in CV-1 cells; type: cell-based; settings: for PPARγ ligand activity: relative to non-treatment control (DMSO) = 100, average ± standard error, n=4
T2 construct: expressed in transfected cells; host or cells: CV-1 cells (African green monkey kidney)
T2 sequence (P37231 204-505): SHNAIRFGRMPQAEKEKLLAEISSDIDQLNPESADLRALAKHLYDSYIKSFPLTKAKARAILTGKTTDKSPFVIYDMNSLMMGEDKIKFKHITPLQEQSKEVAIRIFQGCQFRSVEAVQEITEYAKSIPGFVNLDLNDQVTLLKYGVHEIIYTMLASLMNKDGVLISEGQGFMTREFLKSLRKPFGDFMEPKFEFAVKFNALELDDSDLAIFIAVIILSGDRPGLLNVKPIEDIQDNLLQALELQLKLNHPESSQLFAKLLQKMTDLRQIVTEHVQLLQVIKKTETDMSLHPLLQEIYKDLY
Experimental: as §1, §2

PPARα ligand activity (PPARα; 0.1 μM): 95 ± 12.9
PPARα ligand activity (PPARα; 1.0 μM): 92 ± 8.0
PPARα ligand activity (PPARα; 5.0 μM): 118 ± 6.1
PPARα ligand activity (PPARα; 10 μM): 194 ± 15.0
PPARα ligand activity (PPARα; 20 μM): 350 ± 25.5
PPARα ligand activity (PPARα; 50 μM): 622 ± 79.6
PPARα ligand activity (PPARα; 80 μM): 558 ± 39.4
PPARγ ligand activity ([1]; 0.1 μM): 90 ± 5.7
PPARγ ligand activity ([1]; 1.0 μM): 132 ± 12.0
PPARγ ligand activity ([1]; 10 μM): 388 ± 41.4
PPARγ ligand activity ([1]; 50 μM): 961 ± 72.1
PPARγ ligand activity ([1]; 100 μM): 1032 ± 248.3
PPARγ activity level compared with catechin ([1]; no catechin data shown): higher than that of catechin
SMILES: CC(C)=CCC/C(C)=C/COc1c2ccoc2cc2oc(=O)ccc12 [Bergamottin, bergamottin]
